logP and logD data for 82 compounds are collected here from the SangsterLogP compilation.

One may read the logP as the decadic logarithm of the partition coefficient of the neutral form, usually between octanol and water. A high value points to higher lipophilicity. As a reminder, the logD is the decadic logarithm of the distribution of all forms, ionised or not, between an organic phase and buffer at a given pH.

One series is described as follows: method code SF-AS, from DOI: 10.1002/qsar.19830020303.
Details: not given
On to `Cc1cc(C)nc(C)c1`, for which the logP is 2.01.

Assay in the next series: not given
Details: not given
In turn, `COc1ccc(Cl)nn1` returned a logP of 0.89.

The compound `c1ccc(Sc2cccnc2)cc1` had a lipophilicity (logP) of 3.15.

As for `NNc1ncnc2ccccc12`, the logP amounted to 1.67.

Compound `O=S(=O)(c1ccccc1)c1cccc2cccnc12` registered a logP of 2.33.

`Cc1cnnc2cc(Cl)ccc12` registered a logP of 1.98.

For `CNc1nc(-c2ccccc2)c2ccccc2n1`, the log partition coefficient (logP) is 3.58.

Compound `c1ccc(-c2ncnc3ccccc23)cc1` gave a lipophilicity (logP) of 2.71.

In turn, `Nc1nncc2ccccc12` gave a logP of 0.82.

For the compound `c1ccc(-c2ncncn2)cc1`, the logP was found to be 1.93.

With `CSc1ccc(SC)nn1`, the logP was 1.85.

For `c1ccc(-c2nnco2)cc1`, the logP came out at 1.31.

For the compound `O=C(c1ccccc1)c1ccccn1`, the logP worked out at 1.96.

`COc1nc(-c2ccccc2)c2ccccc2n1` displayed a log partition coefficient (logP) of 3.5.

On to `CC(C)(C)c1ccccn1`, for which the logP turned out to be 2.4.

For `Cc1cnnc2ccc(Cl)cc12`, the log partition coefficient (logP) was determined as 1.96.

Compound `Clc1ccc2cncnc2c1` came in with a logP of 1.74.

Turning to `Nc1cc2ccccc2nn1`, the logP amounted to 1.

`Cc1cccnc1` showed a lipophilicity (logP) of 1.19.

Turning to `COc1nnc(OC)c2ccccc12`, the lipophilicity (logP) stood at 2.22.

The compound `CC(=O)c1cc2ccccc2nn1` returned a log partition coefficient (logP) of 1.44.

As to `COc1ncnc2ccccc12`, the logP is 1.97.

Turning to `CN(C)c1nnc(-c2ccccc2)c2ccccc12`, the logP turned out to be 3.22.

As for `NC(=O)c1cnc2ccccc2c1`, the logP came out at 1.06.

As to `Nc1nc(-c2ccccc2)c2ccccc2n1`, the log partition coefficient (logP) was found to be 2.95.

Compound `CN(C)c1ccc2ccccc2n1` yielded a log partition coefficient (logP) of 2.81. The logP values of the last two compounds are within 0.2 log units of each other.

`COC(=O)c1cnc2ccccc2c1`: the log partition coefficient (logP) was found to be 2.25.

The compound `COc1ccnc2c([N+](=O)[O-])cccc12` returned a log partition coefficient (logP) of 1.92.

On to `Brc1cc2ccccc2nn1`, for which the logP is 1.72.

As to `COc1cnnc2ccccc12`, the logP was 1.41.

As to `CCOC(=O)c1cc2ccc(CC)cc2nn1`, the logP turned out to be 2.31.

`c1ccc2c(NC3CCCC3)ncnc2c1`: the log partition coefficient (logP) worked out at 2.61.

`CN(C)c1ccc(N(C)C)nn1`: the logP was 0.99.

Consider `Cc1nc(-c2ccccc2)c2ccccc2n1`, for which the logP is 3.1.

For `CN(C)C(=O)c1cnc2ccccc2c1`, the logP was 0.99.

The compound `O=[N+]([O-])c1cc2ccccc2nn1` showed a log partition coefficient (logP) of 0.73.

`Nc1ccnc2c([N+](=O)[O-])cccc12`: the log partition coefficient (logP) worked out at 1.31.

On to `CCCOc1cncc(C)n1`, for which the logP is 2.29.

As for `CN(C)c1ccccn1`, the logP was determined as 1.43.

In the case of `CCCCOc1cccnn1`, the log partition coefficient (logP) was determined as 1.8.

In turn, `O=CNc1cccc2cccnc12` displayed a lipophilicity (logP) of 1.8.

`Ic1ccc2ccccc2n1` returned a logP of 3.04.

On to `Nc1cnnc2ccccc12`, for which the logP came out at 1.04.

Take `CSc1nc(C)cc(C)n1`: the logP came to 1.86.

`Cc1cccc2c(N)cnnc12`: the log partition coefficient (logP) was found to be 1.57.

Compound `N#Cc1cnc2ccccc2c1` displayed a logP of 1.57.

`COc1cc(C)nc2ccccc12` registered a logP of 2.81.

For `CC(=O)Nc1ccc2cccnc2c1`, the logP was 1.55.

`Nc1ncnc2ccccc12` registered a logP of 1.28.

On to `c1ccc(Nc2ccccn2)cc1`, for which the log partition coefficient (logP) was 2.75.

As to `c1ccc(Oc2ccccn2)cc1`, the logP stood at 2.45.

`CCOC(=O)c1ccc2ncccc2c1` gave a log partition coefficient (logP) of 2.64.

Consider `NC(=O)c1cnc2ccccc2n1`, for which the logP was 0.98.

The compound `CC(=O)c1cnc2ccccc2c1` showed a lipophilicity (logP) of 1.76.

Take `c1ccc2c(N3CCCCC3)ncnc2c1`: the logP was 2.92.

`O=Cc1ccc2ccccc2n1`: the logP came to 2.14.

Regarding `CSc1ccccn1`, the logP is 1.71.

`CSc1ncc2ccccc2n1` came in with a logP of 2.5.

`Clc1cc2ccccc2nn1` had a log partition coefficient (logP) of 1.57.

With `N#Cc1ccc2ccccc2n1`, the logP amounted to 1.6. The logP values of the last two compounds are within 0.2 log units of each other.

Another series in a line: method code SF, from DOI: 10.1002/qsar.19830020303.
Details: not given
For the compound `COC(=O)c1cnccn1`, the logP is -0.17.

As for `CN(C)c1ccnnc1`, the logP was -0.09.

`CN(C)c1ccc(Cl)nn1` had a logP of 0.98.

`Nc1ccc(Cl)nn1`: the log partition coefficient (logP) was found to be 0.35.

For `CC(=O)Nc1ncccn1`, the logP was -0.75.

In the case of `NS(=O)(=O)c1cccnc1`, the logP is -0.49.

As to `Cc1cc(N)ncn1`, the logP was 0.19.

On to `CS(=O)(=O)c1ccc2ncccc2c1`, for which the logP was 0.7.

In turn, `CN(C)c1cccnn1` displayed a logP of 0.29.

For `CCOC(=O)c1ccc(Cl)nn1`, the lipophilicity (logP) amounted to 0.12.

As to `NS(=O)(=O)c1ccc2ncccc2c1`, the logP amounted to 0.56.

`CN(C)C(=O)c1cccnc1`: the log partition coefficient (logP) was -0.48.

On to `NC(=O)c1ccncc1`, for which the lipophilicity (logP) is -0.28.

Compound `NNC(=O)c1ccc2ncccc2c1` yielded a logP of 0.35.

Compound `NC(=S)c1cccnc1` registered a log partition coefficient (logP) of 0.67.

With `CC(=O)Nc1ccncc1`, the lipophilicity (logP) amounted to 0.5.

Regarding `Cc1cc(NN)ncn1`, the logP stood at 0.62. The logP values of the last two compounds are within 0.2 log units of each other.

For the compound `Cc1cc(N)nc(C)n1`, the logP worked out at 0.39.

In the case of `NC(=S)c1ncccn1`, the lipophilicity (logP) is -0.34.

In turn, `CSc1ccc2ccccc2n1` had a logP of 3.04.

Regarding `NC(=O)c1ccc(Cl)nn1`, the lipophilicity (logP) came out at 0.

The series is the same for the next values; noted with them: pH 7.4.
In turn, `Oc1cnc2ccccc2c1` yielded a pH-dependent lipophilicity (logD) of 2.08.
